Several values for one entry are separate records, joined by “and”; a condition that tells them apart may be missing. Equal values may be shown once. Entries after “also recorded” stand apart in the source; their conditions may differ.
How the values were obtained:
[1] = Hemoccults, gastrointestinal symptoms and side effects, Example 1; format: in vivo, human; conditions: 5 volunteers, topical aspirin
Description: (§1) Five healthy adult volunteers (3 male, 2 female) were studied. Each refrained from ingesting oral aspirin for two weeks prior to study. Prior to treatment in accordance with the present invention, baseline thromboxane levels and hemoccults were obtained.
(§2) After base levels of thromboxane had been measured, the aspirin solution was first applied on the morning of Day 1 to the skin of the human subjects within an hour of mixing by rubbing the aspirin solution on the arms and/or chest of the subject. The application was repeated with freshly prepared solution for each of four additional mornings (Days 2-5) in the same manner. Between applications the subjects followed their normal schedule of bathing and showering. Eight hours after the fifth application (on Day 5) blood was drawn for salicylate levels and thromboxane levels to be determined. With one subject, blood was drawn for TXA2 levels every day just before application of a new aspirin solution (i.e., approximately 24 hours after application of the previous aspirin solution). Hemoccults were also tested.

thromboxane synthesis = conditions: cited from earlier work
platelet cyclooxygenase = test: Serum TXB2 during and after dermal aspirin (index of platelet cyclooxygenase); format: in vivo, human
Description: In studying the effects of the methods of the present invention platelet cyclooxygenase activity was used as a measure of aspirin bioavailability, in addition to plasma drug levels. […] Inhibition of urinary TX-M followed a similar pattern. TX-M is a major enzymatic metabolite of TXB2 and its excretion is an index of TXA2 biosynthesis in vivo. In contrast, the vehicle alone had no effect on serum TXB2 or urinary TX-M. Following withdrawal of therapy, serum TXB2 and TX-M recovered gradually over a period of days. This is consistent with inhibition of platelet cyclooxygenase in vivo. As the enzyme is inhibited irreversibly, recovery of platelet TXA2 biosynthesis parallels the formation of new platelets, a process that has a half-life of 5 days.
(§3) Only healthy male and female volunteers were studied. The subjects were asked to avoid aspirin and any other cyclooxygenase inhibitors for the 10 days before and throughout the period of investigation. Aspirin (acetyl salicylic acid, USP) powder was dissolved in propylene glycol and either isopropyl alcohol or ethanol (1.7:1 v/v) to a final concentration of 94 mg/ml. […] The aspirin preparation was made daily immediately prior to its application Volunteers attended the clinic where the preparation was applied and were asked not to wash the area for at least 12 hours. The aspirin solution was applied to the forearm and upper arm over a 15 min interval. Volunteers received aspirin 250 mg (n=4), aspirin 750 mg (n=6) or vehicle (n=6) for 10 days and were followed for 8 days following drug withdrawal. The volunteers were aged 31-56 years, with equal numbers of male and females in each treatment group.
(§4) Blood without anticoagulant was obtained for serum TXB2, the stable metabolite of TXA2, prior to and at intervals during and following aspirin administration. The blood was allowed to clot in glass at 37° C. for 60 min and the serum removed and stored at -20° C. until analyzed. Urine was collected over 24 hours at corresponding times for measurement of 2,3-dinor-TXB2 (TX-M) and 2,3-dinor-6-keto-PGF1a (PGI-M), major enzymatic metabolites of TXA2 and PGI2, respectively [Lawson et al., Analyt. Biochem. 150:463 (1985); FitzGerald et al., N. Engl. J. Med. 310: 1065 (1984)]. Excretion of these products is an index of the in vivo formation of their parent compounds [FitzGerald et al., supra; Reilly and Fitzgerald, Blood 69: 180 (1987)]. Serum TXB2 and urinary metabolites were determined by negative ion-chemical ionization, gas chromatography-mass spectrometry (NICI-GCMS) using authentic deuterated standards, as previously described [Braden et al., supra].

PGI2 biosynthesis = test: Urinary 2,3-dinor-6-keto-PGF1a (PGI-M) excretion, dermal aspirin, Example 2; format: in vivo, human; conditions: for Urinary PGI-M excretion, peak decrease (day 4): p=0.074 by ANOVA (not significant)
Description: as §3, §4

thromboxane-B2 = test: Thromboxane (thromboxane-B2) blood levels after topical aspirin, Example 1; format: in vivo, human
Description: as §1
Thromboxane levels were measured by assaying for blood levels of thromboxane-B2 in accordance with the method described in Braden et al., Circulation 82:178 (1990). Thromboxane levels can also be measured in either blood or urine according to known methods which include those without limitation disclosed in the following references: Hirsh et al., supra; Robertson et al., N. Engl. J. Med. 304:998 (1981); Pedersen et al., N. Engl. J. Med. 311:1206 (1984); Patrignani et al., J. Clin. Invest. 69:1366 (1982); Preston et al., 304:76 (1981); Hirsh et al., N. Engl. J. Med. 304:685 (1981).
A preparation of aspirin in isopropyl alcohol and propylene glycol was prepared by mixing "Aspirsol"™ topical aspirin (NDC54102-001-01; commercially available from TERRI Pharmaceuticals, Inc., PO Box 6454, Kingwood, Tex. 77325) in accordance with the package instructions except that 8 ml instead of 10 ml of the suspending solution was used. The resulting solution contained approximately 9% aspirin rather than the 7-8% indicated on the package label.
as §2
Two of the subjects continued daily application for another five days (total ten days). For Days 6 and 7, aspirin solutions freshly prepared as described above were used. Beginning with Day 8, a different aspirin preparation was used. This second preparation was prepared by crushing aspirin tablets containing approximately 975 mg aspirin to form a powder. The powder was then formed into a paste with approximately 2 ml of distilled water. This paste was then mixed with 4 ml propylene glycol and 4 ml ethanol to produce approximately 10 ml of a cloudy solution. This cloudy solution was then filtered to remove excipients and other insoluble material found in the crushed aspirin tablets. After filtering, approximately 10 ml of a clear solution was obtained which contained approximately 9% aspirin. 8 ml of the resulting solution was used in each application. This second solution was applied to the two continuing subjects as previously described. Salicylate and thromboxane levels were checked after the tenth day.

[2] = highest dose of dermal aspirin (750 mg/day)
[3] = Subject 1, baseline 401, about 24 h after previous application

CC(=O)Oc1ccccc1C(=O)O [aspirin, acetyl salicylic acid]
Gastrointestinal symptoms or other side effects [1]: No gastrointestinal symptoms or other side effects were noted or reported | Hemoccults [1]: negative | Thromboxane-B2 synthesis in vitro and urinary 2,3-dinor-thromboxane-B2 (thromboxane synthesis; approximately 40 mg/day): inhibit thromboxane-B2 synthesis in vitro and to reduce the urinary excretion of 2,3-dinor-thromboxane-B2 | TXA2 and PGI2 synthesis (thromboxane synthesis; approximately 1,000 mg/day): inhibits both TXA2 and PGI2 synthesis | Maternal and neonatal thromboxane (thromboxane synthesis; low doses, women at risk for pregnancy-induced hypertension): selectively suppress maternal thromboxane levels, but only partially suppressed neonatal thromboxane | Inhibition of platelet cyclooxygenase (platelet cyclooxygenase; aspirin absorbed through the skin): marked and selective inhibition of platelet cyclooxygenase | Serum TXB2 recovery, day 8 after withdrawal (platelet cyclooxygenase; dermal aspirin 250 mg/day): 93±7 % of baseline | Serum TXB2 (fall in), day 10 (platelet cyclooxygenase; dermal aspirin 250 mg/day, n=4, p<0.01): 55±11% | Serum TXB2 recovery, day 8 after withdrawal (platelet cyclooxygenase; dermal aspirin 750 mg/day): 65±9 % of baseline | Serum TXB2 response (platelet cyclooxygenase; dermal aspirin 750 mg/day, n=6): progressive reduction in serum TXB2 in all but one of the volunteers | Serum TXB2, day 10 of application (platelet cyclooxygenase; dermal aspirin 750 mg/day, n=5 (one non-responder excluded), p=0.003): 5±3 % of baseline | Decrease in serum TXB2 in the subjects of Example 4 (platelet cyclooxygenase; dermal aspirin, subjects selected for pharmacokinetics): > 90% | Maximum inhibition of platelet cyclooxygenase, as measured by serum TXB2 (platelet cyclooxygenase; dermal, highest dose, 10 days): exceeded 95% | PGI2 biosynthesis based on urinary PGI-M (PGI2 biosynthesis; dermal aspirin): little inhibition of basal or stimulated PGI2 formation; also recorded: only a small fall in PGI2 biosynthesis | Urinary PGI-M excretion, peak decrease (day 4) (PGI2 biosynthesis; dermal aspirin 250 mg/day, baseline 402±139 pg/mg creatinine): 84±4 % of baseline | Urinary PGI-M excretion, peak decrease (day 4) (PGI2 biosynthesis; dermal aspirin 750 mg/day, baseline 248±73 pg/mg creatinine): 76±7 % of baseline | Decrease in basal PGI-M excretion by day 4 (PGI2 biosynthesis; [2]): 24% | PGI-M excretion by day 10 (PGI2 biosynthesis; [2]): 83 % of baseline | Decrease in thromboxane levels after five daily applications (thromboxane-B2; Day 5, subject 3 not considered): at least 50% | Thromboxane level, Day 3 (thromboxane-B2; [3]): 250 ng/cc | Thromboxane level, Day 4 (thromboxane-B2; [3]): 199 ng/cc | Thromboxane level, Day 5, prior to the Day 5 dose (thromboxane-B2; Subject 1, baseline 401, morning of Day 5): 105 ng/cc | Thromboxane level, Day 2 (thromboxane-B2; Subject 1, baseline 401, topical aspirin ~9% solution daily, about 24 h after previous application): 311 ng/cc | Thromboxane level, Day 10 (thromboxane-B2; two subjects continuing to ten daily applications, subject 1 baseline 401, subject 2 baseline 372): 18 ng/cc and 12 ng/cc | Suppression of thromboxane levels by Day 10 (thromboxane-B2; two subjects, ten daily applications): 95% and 97%

Reference: patent US6071896A, “Suppression of thromboxane levels by percutaneous administration of aspirin” (Gundersen Clinic, Ltd., priority 1998, dated 2000)
